Assay results as given in publication PMC6472337, “L amino acid transporter structure and molecular bases for the asymmetry of substrate interaction” (Nature Communications, 2019).
Numbering of substitutions follows the chain as printed. Several values for one entry are separate records, joined by “and”; a condition that tells them apart may be missing. Equal values may be shown once. Read-outs that look alike come from different tables or passages of the source.

Assays:
hAsc-1 S325A mutant = target: T1, hAsc-1 S325A mutant (Homo sapiens, UniProt Q9NS82, S325A); test: [3H]L-alanine uptake in HeLa cells, hAsc-1 S325A; type: cell-based; conditions: WT = 100, n=1-3 and mean
T1 construct: expressed in transfected cells; host or cells: HeLa
T1 sequence (Q9NS82 1-523 S325A): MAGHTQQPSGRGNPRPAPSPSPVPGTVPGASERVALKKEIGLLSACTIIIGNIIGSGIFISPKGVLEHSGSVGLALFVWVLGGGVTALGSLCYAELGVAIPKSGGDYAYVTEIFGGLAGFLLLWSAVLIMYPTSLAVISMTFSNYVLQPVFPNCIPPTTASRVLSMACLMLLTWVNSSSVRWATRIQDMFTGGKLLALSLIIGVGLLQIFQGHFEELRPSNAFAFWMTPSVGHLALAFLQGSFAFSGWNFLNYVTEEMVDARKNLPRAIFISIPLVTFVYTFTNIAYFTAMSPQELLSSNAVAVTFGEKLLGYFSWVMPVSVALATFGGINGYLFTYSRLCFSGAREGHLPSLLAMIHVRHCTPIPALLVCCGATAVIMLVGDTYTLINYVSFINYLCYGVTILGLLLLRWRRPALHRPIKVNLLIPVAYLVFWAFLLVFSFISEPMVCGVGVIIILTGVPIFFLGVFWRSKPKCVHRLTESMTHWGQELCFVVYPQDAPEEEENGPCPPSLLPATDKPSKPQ
T1 sequence (P08195 1-529 partner): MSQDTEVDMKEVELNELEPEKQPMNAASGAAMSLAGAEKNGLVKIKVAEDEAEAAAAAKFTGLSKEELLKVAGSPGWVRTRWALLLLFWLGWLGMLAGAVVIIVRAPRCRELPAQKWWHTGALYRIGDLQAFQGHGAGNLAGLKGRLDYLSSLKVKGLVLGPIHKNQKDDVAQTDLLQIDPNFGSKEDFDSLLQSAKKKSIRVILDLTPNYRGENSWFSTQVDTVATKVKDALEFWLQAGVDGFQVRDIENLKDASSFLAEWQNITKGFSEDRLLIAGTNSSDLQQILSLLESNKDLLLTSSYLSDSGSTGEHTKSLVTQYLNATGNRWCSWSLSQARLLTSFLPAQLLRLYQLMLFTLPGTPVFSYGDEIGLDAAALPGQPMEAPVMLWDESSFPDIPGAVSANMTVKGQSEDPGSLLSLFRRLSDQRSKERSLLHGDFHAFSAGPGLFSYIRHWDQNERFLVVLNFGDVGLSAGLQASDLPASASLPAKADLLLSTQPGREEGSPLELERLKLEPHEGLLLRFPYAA
From the text: All mutations were verified by sequencing.

wild-type BasC = test: Thermostability-based L-alanine binding assay (GFP-fused protein, SEC); design: species or system Carnobacterium sp AT7; conditions: for Kd Wild-type binding curve, normalized signal: n=1-3
Experimental: GFP-fused BasC proteins purified in DM were incubated for 10 min at 4–60 °C (Y236F and K154A mutants) or 4–70 °C (wild-type). In total, 200 µl of 2 mg ml^−1 protein was used for each temperature point. Protein was then centrifuged at 186,000 × g for 30 min. […] Fractions (200 µl) were collected and measured for GFP fluorescence. The peak heights were normalized to those of samples incubated at 4 °C and were fit to the Hill equation using the GraphPad Prism 4 program (GraphPad Software Inc., San Diego, CA). Melting temperatures (Tm) were determined by fitting the curves to a sigmoidal dose-response equation, as previously described.
BasC-GFP proteins were then incubated at the calculated Tm for 10 min and centrifuged at 186,000 × g for 30 min. […] Binding affinities were determined by fitting the curves to a sigmoidal dose-response equation.

hAsc-1 K194A mutant = target: T2, hAsc-1 K194A mutant (Homo sapiens, UniProt Q9NS82, K194A); test: [3H]L-alanine uptake in HeLa cells, hAsc-1 K194A
T2 sequence (Q9NS82 1-523 K194A): T1 sequence (Q9NS82 1-523 S325A) with K194A, A325S
T2 sequence (P08195 1-529 partner): T1 sequence (P08195 1-529 partner)

C[C@H](N)C(=O)O [L-alanine]
transport of 10 µM [3H]L-alanine normalized to wild-type (hAsc-1 S325A mutant): 135.06 and 126.01 and 130.11 | transport of 10 µM [3H]L-alanine normalized to wild-type (hAsc-1 S325A mutant; mean): 130.39 | Kd (wild-type BasC; WT BasC, incubated at Tm, L-alanine 0–200 mM, read-out: KD (apparent, thermostability-based)): 34.5 ± 2.1 mM | Kd Wild-type binding curve, normalized signal (wild-type BasC; [L-Alanine] 0.36 mM): 4.340 and 4.304 and 4.417 | Kd Wild-type binding curve, normalized signal (wild-type BasC; [L-Alanine] 1.50 mM): 6.609 and 6.614 and 8.554 | Kd Wild-type binding curve, normalized signal (wild-type BasC; [L-Alanine] 3.13 mM): 10.226 and 10.310 and 9.554 | Kd Wild-type binding curve, normalized signal (wild-type BasC; [L-Alanine] 6.25 mM): 16.111 and 16.814 and 19.554 | Kd Wild-type binding curve, normalized signal (wild-type BasC; [L-Alanine] 12.50 mM): 30.546 and 30.584 and 35.221 | Kd Wild-type binding curve, normalized signal (wild-type BasC; [L-Alanine] 25 mM): 47.282 and 48.296 and 50.554 | Kd Wild-type binding curve, normalized signal (wild-type BasC; [L-Alanine] 50 mM): 70.152 and 71.030 and 72.225 | Kd Wild-type binding curve, normalized signal (wild-type BasC; [L-Alanine] 100 mM): 82.376 and 81.876 and 86.554 | Kd Wild-type binding curve, normalized signal (wild-type BasC; [L-Alanine] 150 mM): 97.076 and 84.776 and 95.225 | Kd Wild-type binding curve, normalized signal (wild-type BasC; [L-Alanine] 200 mM): 100.000 | Kd (wild-type BasC; individual experiments n=1, n=2, n=3, read-out: Apparent Kd Wild type): 35.9 mM and 35.4 mM and 32.2 mM | Kd (wild-type BasC; mean of n=3, read-out: Apparent Kd Wild type, mean): 34.5 mM | reduction of Vmax vs. wild-type (hAsc-1 K194A mutant): ~ 10 fold | reduction of external apparent affinity vs. wild-type (hAsc-1 K194A mutant): ~ 10 fold
